In patent US9718809B2, “Bisarylsulfonamides useful in the treatment of inflammation and cancer” (Kancera AB, priority 2011, dated 2017):
Counter-ions that a name gives are not always drawn.

System: F-2,6-P2 in NUGC-3 cells
Assay: Quantification of F-2,6-P2 (Van Schaftingen coupled enzyme assay) in NUGC-3 cells
Assay type: cell-based
Conditions: Homo sapiens; NUGC-3 cells, under hypoxia (0.6-1% O2); read-out: IC50 based on quantification of F-2,6-P2
Excerpt: (§1) A method for quantification of F-2,6-P2 has been described by Van Schaftingen et al. (1982) Eur. J. Biochem. 129, 191-5. This sensitive assay is based on the potent activation of pyrophosphate dependent phosphofructokinase-1 (PPi-PFK) from potato tubers by F-2,6-P2. The use of a series of coupled enzymes leads to a consumption of NADH (nicotinamide adenine dinucleotide) that can be followed spectrophotometrically (an updated protocol is available in Van Schaftingen, (1984) Methods of Enzymatic Analysis (Bergmeyer, H. U., ed.), 3rd edn., vol. 6, pp. 335-341, Verlag Chemie, Weinheim). A protocol for measurements in 96-well microtiter plate format is also available (Bruni et al., (1989) Anal. Biochem. 178, 324-6).
(§2) The levels of F-2,6-P2 have been determined using the van Shaftingen assay as described in the protocol below, in six different cancer cell lines endogenously expressing varying levels of the different isoforms of PFK-2/BPase-2 (MCF-7, PANC-1, NUGC-3, SW480, SW620 and MIA PaCa-2). All reagents were purchased from commercial sources or prepared in-house.
Cell line C (NUGC-3, human gastric cancer cell line): NUGC-3 cells (JCRB0822), lot no. 04272009. Growth medium: RPMI1640, #R8758, Sigma-Aldrich; 10% FBS, Invitrogen, 10270-106 or Dulbecco's Modified Eagle's Medium, DMEM, VWR, LONZ12-604F; 10% FBS, Invitrogen, 10270-106. Cells were seeded at a concentration of ˜350 000 cells/mL in 100 μL growth medium (˜35 000 cells/well).
(§3) Starvation medium (cell lines A-F): DMEM/F12 without phenol red and glucose free, SVA, 991373; 0.25% FBS, Invitrogen, 10270-106.
(§4) Induction medium (cell lines A-F): DMEM/F12 without phenol red and glucose free, SVA, 991373; 0.25% FBS, Invitrogen, 10270-106 (same as starvation medium).
(§5) Cells were seeded in 96-well Corning Costar tissue culture plates (CLS3595, Sigma-Aldrich) using the concentrations specified above for the different cell lines A-F and incubated over night at 37° C. and 5% CO2. Row A in the plate was left empty and the cell lines added to rows B-H. Next day the growth medium was discarded and replaced with 100 μL starvation medium. The plates were incubated for 18 h at 37° C. and 5% CO2. After 18 h of starvation the cells were induced with 100 μL compound or control solutions. Compounds were either tested in two concentrations (50 μM and 10 μM) or in dose response curves starting from 50 μM. The final DMSO concentration in assay plates was 0.5%. Also a dose response curve of a reference inhibitor was included in row H on each plate. All compounds were tested in duplicate plates. Compounds (in 96 well CLS 3365, Sigma-Aldrich plates) were serial diluted in DMSO from 10 mM compound DMSO stock solutions with Janus (automated liquid handling workstation from PerkinElmer). Five μL were transferred to a Greiner deep well plate (736-0155, VWR) with 495 μL starvation medium. The final start concentration of compounds in the dilution plate was 100 μM, 1% DMSO. For compounds tested as single points, 10 mM compound solutions were diluted five fold in DMSO to 2 mM, followed by the transfer of 5 μL to separate dilution plates with 495 μL starvation medium. The final concentrations of compounds in these dilution plates were 100 or 20 μM, respectively, and final concentration of DMSO was 1%. The plates were incubated at 37° C. and 5% CO2 for 1 h, followed by the addition of 10 μL 20 mM D-glucose in starvation medium. Controls, with and without 1 mM glucose, were included in row B. The final assay volume was 210 μL per well. After 2 h of incubation at 37° C. and 5% CO2, the supernatants were discarded and the cells lysed by the addition of 25 μL 250 mM NaOH. The plates were incubated at 37° C. and 5% CO2 for 5 min followed by an addition of 75 μL MilliQ dH2O. The supernatants were further diluted with 210 μL MilliQ dH2O to a final concentration of 20 mM NaOH. 200 μL were transferred to NUNC 96-well plates (7322661, VWR) and the plates were sealed and stored at −20° C. until analysis. […]

| IC50 | Structure (SMILES) |
| --- | --- |
| 5.6 µM | Cn1c(COC(=O)c2ccc(NS(=O)(=O)c3cc(Cl)c(Cl)s3)cc2O)cnc1[N+](=O)[O-] [Example 202, (1-Methyl-2-nitro-1H-imidazol-5-yl)methyl 4-{[(4,5-dichlorothiophen-2-yl)sulfonyl]amino}-2-hydroxybenzoate] |

Same assay, conditions: Homo sapiens; NUGC-3 cells; read-out: IC50 based on quantification of F-2,6-P2

| IC50 | Structure (SMILES) |
| --- | --- |
| 0.9 µM | COC(=O)c1ccc(NS(=O)(=O)c2cc(Cl)c(Cl)s2)cc1O [Example 27, Methyl 4-{[(4,5-dichloro-2-thienyl)sulfonyl]amino}-2-hydroxybenzoate] |
| 5.1 µM | COC(=O)c1ccc(NS(=O)(=O)c2cccc(-c3cc(F)ccc3F)c2)cc1O [Example 153, Methyl 4-{[(2′,5′-difluorobiphenyl-3-yl)sulfonyl]amino}-2-hydroxybenzoate] |
| 2.8 µM | O=C(OCCCN1CCOCC1)c1ccc(NS(=O)(=O)c2cc(-c3ccc4c(c3)OCO4)c(Cl)s2)cc1O [Example 162, 3-Morpholin-4-ylpropyl 4-({[4-(1,3-benzodioxol-5-yl)-5-chloro-2-thienyl]sulfonyl}amino)-2-hydroxybenzoate trifluoroacetate] |
| 1.4 µM | COCC(COC)OC(=O)c1ccc(NS(=O)(=O)c2cc(Cl)cc(Cl)c2)cc1O [Example 191, 2-Methoxy-1-(methoxymethyl)ethyl 4-{[(3,5-dichlorophenyl)sulfonyl]amino}-2-hydroxybenzoate] |
| 1.2 µM | CC(CCN1CCOCC1)OC(=O)c1ccc(NS(=O)(=O)c2cc(Cl)c(Cl)s2)cc1O (stereo not shown) [Example 193] |

System: F-2,6-P2 in PANC-1 cells
Assay: Quantification of F-2,6-P2 (Van Schaftingen coupled enzyme assay) in PANC-1 cells
Assay type: cell-based, human
Conditions: Homo sapiens; PANC-1 cells; read-out: IC50 based on quantification of F-2,6-P2
Excerpt: as §1, §2
Cell line B (PANC-1, human pancreatic carcinoma cell line): PANC-1 cells (ATCC-CRL-1469), lot. no. 58564651. Cells were seeded at a concentration of ˜250 000 cells/mL in 100 μL growth medium (˜25 000 cells/well).
Growth medium (cell lines B-F): Dulbecco's Modified Eagle's Medium, DMEM, VWR, LONZ12-604F; 10% FBS, Invitrogen, 10270-106.
as §3, §4, §5

| Structure (SMILES) | IC50 |
| --- | --- |
| COC(=O)c1ccc(NS(=O)(=O)c2cc(Cl)c(Cl)s2)cc1O [Example 27, Methyl 4-{[(4,5-dichloro-2-thienyl)sulfonyl]amino}-2-hydroxybenzoate] | 0.8 µM |
| COC(=O)c1ccc(NS(=O)(=O)c2cc(-c3cccc(C(=O)N(C)C)c3)c(Cl)s2)cc1O [Example 143, Methyl 4-[({5-chloro-4-[3-(dimethylcarbamoyl)phenyl]thiophen-2-yl}sulfonyl)amino]-2-hydroxybenzoate] | 2.4 µM |
| COC(=O)c1ccc(NS(=O)(=O)c2cnc(Cl)c(-c3ccc4c(c3)CCO4)c2)cc1O [Example 155, Methyl 4-({[6-chloro-5-(2,3-dihydro-1-benzofuran-5-yl)pyridin-3-yl]sulfonyl}amino)-2-hydroxybenzoate] | 4.9 µM |
| COCCOC(=O)c1ccc(NS(=O)(=O)c2cccc(-c3ccc4c(c3)CCO4)c2)cc1O [Example 175, 2-Methoxyethyl 4-({[3-(2,3-dihydro-1-benzofuran-5-yl)phenyl]sulfonyl}amino)-2-hydroxybenzoate] | 0.7 µM |
| O=C(OCCCN1CCOCC1)c1ccc(NS(=O)(=O)c2cc(Cl)cc(Cl)c2)cc1O [Example 187, 3-Morpholin-4-ylpropyl 4-{[(3,5-dichlorophenyl)sulfonyl]amino}-2-hydroxybenzoate trifluoroacetate] | 6.8 µM |

Second part, the molecule after the results:

| IC50 | Structure (SMILES) |
| --- | --- |
| 3.5 µM | COCCOC(=O)c1ccc(NS(=O)(=O)c2c(Cl)sc(Cl)c2Br)cc1O [Example 197, 2-Methoxyethyl 4-{[(4-bromo-2,5-dichlorothiophen-3-yl)sulfonyl]amino}-2-hydroxybenzoate] |
| 1.8 µM | O=C(OC1CCN(Cc2ccccc2)C1)c1ccc(NS(=O)(=O)c2c(Cl)sc(Cl)c2Cl)cc1O (stereo not shown) [Example 204, 1-Benzylpyrrolidin-3-yl 2-hydroxy-4-{[(2,4,5-trichloro-3-thienyl)sulfonyl]amino}benzoate] |
| 8.9 µM | COC(=O)c1ccc(NS(=O)(=O)c2cc(Cl)c(-c3ccccc3O)s2)cc1O [Example 206, Methyl 4-({[4-chloro-5-(2-hydroxyphenyl)thiophen-2-yl]sulfonyl}amino)-2-hydroxybenzoate] |
| 0.6 µM | O=C(OCCCN1CCOCC1)c1ccc(NS(=O)(=O)c2cc(-c3cc(F)ccc3O)c(Cl)s2)cc1O [Example 213, 3-Morpholin-4-ylpropyl 4-({[5-chloro-4-(5-fluoro-2-hydroxyphenyl)-2-thienyl]sulfonyl}amino)-2-hydroxybenzoate trifluoroacetate] |
| 1.4 µM | O=C(OCCO)c1ccc(NS(=O)(=O)c2cc(-c3ccccc3)c(Cl)s2)cc1O [Example 217, 2-Hydroxyethyl 4-{[(5-chloro-4-phenyl-2-thienyl)sulfonyl]amino}-2-hydroxybenzoate] |
| 2 µM | COCC(COC)OC(=O)c1ccc(NS(=O)(=O)c2cc(-c3cccc(F)c3)c(Cl)s2)cc1O [Example 222, 2-Methoxy-1-(methoxymethyl)ethyl 4-({[5-chloro-4-(3-fluorophenyl)-2-thienyl]sulfonyl}amino)-2-hydroxybenzoate] |
| 1.9 µM | O=C(OCCCNc1cccnc1)c1ccc(NS(=O)(=O)c2cccc(-c3cc(F)ccc3O)c2)cc1O [Example 230, 3-(Pyridin-3-ylamino)propyl 4-{[(5′-fluoro-2′-hydroxybiphenyl-3-yl)sulfonyl]amino}-2-hydroxybenzoate trifluoroacetate] |
| 0.8 µM | Cc1cc(NCCCOC(=O)c2ccc(NS(=O)(=O)c3cccc(-c4cc(F)ccc4O)c3)cc2O)no1 [Example 232, 3-[(5-Methylisoxazol-3-yl)amino]propyl 4-{[(5′-fluoro-2′-hydroxybiphenyl-3-yl)sulfonyl]amino}-2-hydroxybenzoate trifluoroacetate] |

Same assay, conditions: at 12.5-50 μM in PANC-1 cells

| Structure (SMILES) | inhibition (F-2,6-P2 levels) |
| --- | --- |
| COC(=O)c1ccc(NS(=O)(=O)c2cc(Cl)c(-c3ccccc3OC)s2)cc1O [Example 207, Methyl 4-({[4-chloro-5-(2-methoxyphenyl)thiophen-2-yl]sulfonyl}amino)-2-hydroxybenzoate] | ≥ 50% |
| O=C(O)C(F)(F)F.O=C(OCCOc1ccc(Cl)nc1)c1ccc(NS(=O)(=O)c2cc(Cl)c(Cl)s2)cc1O [Example 226, 2-[(6-Chloropyridin-3-yl)oxy]ethyl 4-{[(4,5-dichloro-2-thienyl)sulfonyl]amino}-2-hydroxybenzoate trifluoroacetate] | ≥ 50% |
| COCc1cccc(OCCOC(=O)c2ccc(NS(=O)(=O)c3cc(Cl)c(Cl)s3)cc2O)c1 [Example 227, 2-[3-(Methoxymethyl)phenoxy]ethyl 4-{[(4,5-dichloro-2-thienyl)sulfonyl]amino}-2-hydroxybenzoate] | ≥ 50% |
